Reference: US20260001849A1, “NOVEL B0AT1 INHIBITOR” (MITSUBISHI TANABE PHARMA CORPORATION, priority 2023, published 2026)
Read-outs that look alike come from different tables or passages of the source.

What was measured:
hERG channel = target: T1, hERG channel (Homo sapiens, UniProt Q12809); assay: hERG channel inhibitory activity, whole-cell patch clamp (auto-patch clamp system); assay type: cell-based; settings: read-out: hERG IC50
T1 construct: host or cells: CHO cells
Procedure: Evaluation of hERG (Human Ether-a-go-go Related Gene) Channel Inhibitory Activity
The hERG channel inhibitory activity of the compound of the present invention was measured using CHO cells (B′ SYS GmbH) forcibly expressing hERG channels involved in human rapidly active delayed rectifier potassium current (IKr) by the whole-cell patch clamp method using an auto-patch clamp system (SyncroPatch384PE).
Cell suspension, extracellular fluid, intracellular fluid, and measurement plate (NPC-384 plate) were placed in the auto-patch clamp system, and hERG current measurements were performed using the whole-cell patch clamp method. The voltage protocol was set to a holding potential of −80 mV, with a depolarizing pulse preceded by −90 mV (100 ms) and followed by −80 mV (100 ms).
The depolarizing pulse was […] (500 ms), and then the hERG peak current value obtained during the ramp phase was measured when the voltage was lowered to −80 mV over 100 ms. The protocol was applied at 5-second intervals for 5 minutes for each concentration.
SyncroPatch software (manufactured by Nanion) was used for data analysis. Four concentrations were applied incrementally for each test substance, and the average hERG Peak current value obtained from the last three stimuli of each applied concentration was used as the evaluation data. The IC50 value was calculated from the inhibition rate of the current at each concentration of each test substance relative to the pre-application value using Hill's equation (Hill equation) using the relevant software.
The same experiments were also performed using the example compounds described in WO 2023/145804 as comparative example compounds 1-4.

Human BOAT1 = target: T2, Human BOAT1 (Homo sapiens, UniProt Q695T7); assay: hBOAT1 inhibitory test (phenylalanine uptake); assay type: cell-based; settings: Human BOAT1 stable expression CHO cells, phenylalanine 0.25 mM, read-out: hB0AT1 IC50
T2 construct: expressed in transfected cells
T2 sequence (Q695T7 1-634): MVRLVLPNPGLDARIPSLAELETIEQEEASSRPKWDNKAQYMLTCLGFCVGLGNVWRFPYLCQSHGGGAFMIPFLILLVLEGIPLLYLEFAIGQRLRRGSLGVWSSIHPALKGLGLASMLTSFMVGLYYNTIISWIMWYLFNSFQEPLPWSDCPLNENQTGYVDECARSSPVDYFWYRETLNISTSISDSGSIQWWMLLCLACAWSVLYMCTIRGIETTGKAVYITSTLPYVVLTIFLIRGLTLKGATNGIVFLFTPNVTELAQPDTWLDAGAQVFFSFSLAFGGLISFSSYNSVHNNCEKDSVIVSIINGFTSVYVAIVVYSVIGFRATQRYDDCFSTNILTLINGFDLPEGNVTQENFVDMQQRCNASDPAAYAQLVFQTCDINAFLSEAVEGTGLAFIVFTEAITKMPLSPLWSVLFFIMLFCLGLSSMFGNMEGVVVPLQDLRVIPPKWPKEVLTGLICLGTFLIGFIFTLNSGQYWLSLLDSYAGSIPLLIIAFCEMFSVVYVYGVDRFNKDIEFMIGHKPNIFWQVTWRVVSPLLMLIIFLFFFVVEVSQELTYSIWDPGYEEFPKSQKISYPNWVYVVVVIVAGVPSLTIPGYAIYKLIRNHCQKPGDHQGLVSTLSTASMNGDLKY
Procedure, shortened: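 Human BOAT1 stably expressed in CHO cells (75000 cells/well) in HEPES-buffered NaCl/KCl/CaCl2/MgCl2 buffer with 0.01% BSA, compound at 0.5% DMSO, preincubated ≥30 min at ordinary temperature. Uptake of L-phenylalanine plus [3H]-L-phenylalanine (0.25 mM final) read by scintillation proximity; 100–200 min values analysed, non-specific uptake defined with […] reference inhibitor.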

[1] = [3H]-L-phenylalanine uptake, radioactivity after 100 to 200 min

T1 sequence (Q12809 whole entry): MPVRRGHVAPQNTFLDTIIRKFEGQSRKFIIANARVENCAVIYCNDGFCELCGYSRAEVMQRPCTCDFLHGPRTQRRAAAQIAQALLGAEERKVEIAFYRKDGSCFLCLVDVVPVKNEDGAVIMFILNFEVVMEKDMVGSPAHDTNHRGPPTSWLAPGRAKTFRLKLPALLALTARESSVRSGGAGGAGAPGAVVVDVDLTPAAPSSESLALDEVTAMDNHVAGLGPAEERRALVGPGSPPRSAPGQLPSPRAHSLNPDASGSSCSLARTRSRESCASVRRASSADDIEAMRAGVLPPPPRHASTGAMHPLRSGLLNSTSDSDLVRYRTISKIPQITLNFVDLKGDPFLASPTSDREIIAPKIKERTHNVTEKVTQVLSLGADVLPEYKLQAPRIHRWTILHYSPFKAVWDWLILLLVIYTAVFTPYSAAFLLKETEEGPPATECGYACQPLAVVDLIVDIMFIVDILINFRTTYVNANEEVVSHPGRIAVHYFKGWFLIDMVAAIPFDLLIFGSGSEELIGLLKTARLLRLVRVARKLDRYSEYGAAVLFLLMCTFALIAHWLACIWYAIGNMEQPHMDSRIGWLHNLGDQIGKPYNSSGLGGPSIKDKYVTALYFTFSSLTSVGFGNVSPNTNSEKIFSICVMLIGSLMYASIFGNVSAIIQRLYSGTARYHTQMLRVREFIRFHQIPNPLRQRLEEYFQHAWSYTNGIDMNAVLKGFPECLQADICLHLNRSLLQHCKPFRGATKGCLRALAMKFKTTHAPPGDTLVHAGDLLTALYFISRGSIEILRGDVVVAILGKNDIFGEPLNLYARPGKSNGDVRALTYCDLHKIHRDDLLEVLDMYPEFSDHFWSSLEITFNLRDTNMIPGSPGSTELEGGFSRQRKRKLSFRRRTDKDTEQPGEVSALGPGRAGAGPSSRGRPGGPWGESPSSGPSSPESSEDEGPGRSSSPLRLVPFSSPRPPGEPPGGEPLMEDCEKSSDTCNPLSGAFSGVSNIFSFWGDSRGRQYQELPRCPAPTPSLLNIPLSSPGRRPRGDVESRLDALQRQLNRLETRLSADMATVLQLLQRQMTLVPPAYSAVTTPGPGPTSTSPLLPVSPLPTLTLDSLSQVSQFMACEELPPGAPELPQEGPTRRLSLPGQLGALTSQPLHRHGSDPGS

Row | Structure (SMILES) | IC50 (Human BOAT1; [1]) | IC50 (Human BOAT1; phenylalanine uptake) | IC50 (hERG channel)
1 | C[C@@H]1CN(C(=O)CNC(=O)/C=C/c2ccc(C(F)(F)F)cc2F)[C@@H](c2cccc(C3CC3)c2)CN1CCC(=O)O [I-384] | 0.031 µM | – | 15.8 µM
2 | Cc1cc(CC(=O)O)cc2c1CN(C(=O)CNC(=O)/C=C/c1ccc(C(F)(F)F)cc1)CC2 [I-149] | 0.132 µM | – | > 30 µM
3 | C[C@@H]1[C@H](c2ccccc2)N(C(=O)CNC(=O)/C=C/c2ccc(C(F)(F)F)cc2F)CCN1CCCC(=O)O [I-353] | – | 0.4 µM | > 30 µM
4 | O=C(O)CCCN1CCN(C(=O)CNC(=O)/C=C/c2ccc(C(F)(F)F)cc2F)C(c2cccc(Cl)c2)C1 (centres unmarked) [I-238] | 0.097 µM | – | > 30 µM
5 | O=C(O)Cc1ccc2c(c1)CCN(C(=O)CNC(=O)/C=C/c1ccc(C(F)(F)F)cc1)C2 [I-182] | 0.085 µM | – | > 30 µM
6 | O=C(O)Cc1cc(Cl)c2c(c1)CCN(C(=O)CNC(=O)/C=C/c1ccc(C(F)(F)F)cc1)C2 [I-145] | 0.086 µM | – | > 30 µM
7 | CC(C(=O)O)c1ccc2c(c1)CCN(C(=O)CNC(=O)/C=C/c1ccc(C(F)(F)F)cc1)C2 (single isomer, unassigned) [I-286, 2-[2-[2-[[(E)-3-[4-(trifluoromethyl)phenyl]prop-2-enoyl]amino]acetyl]-3,4-dihydro-1H-isoquinolin-6-yl]propanoic acid] | – | 0.303 µM | > 30 µM
8 | O=C(O)Cc1ccc2c(c1)CCN(C(=O)CNC(=O)/C=C/c1ccc(Cl)cc1)C2 [I-185] | 0.168 µM | – | > 30 µM
9 | O=C(O)Cc1cc(Cl)c2c(c1)CCN(C(=O)CNC(=O)/C=C/c1ccc(C(F)(F)F)cc1F)C2 [I-141] | 0.034 µM | – | > 30 µM
10 | O=C(/C=C/c1ccc(C(F)(F)F)cc1F)NCC(=O)N1CCN(CC23CC(C(=O)O)(C2)C3)CC1c1ccc(Cl)cc1 (centres unmarked) [I-250] | 0.506 µM | – | > 30 µM
11 | O=C(O)Cc1ccc2c(c1)CCN(C(=O)CNC(=O)/C=C/c1ccc(Cl)cc1F)C2 [I-186] | 0.076 µM | – | > 30 µM
12 | O=C(O)Cc1ccc2c(c1)CCN(C(=O)CNC(=O)/C=C/c1ccc(C(F)(F)F)cc1F)C2 [I-187] | 0.059 µM | – | > 30 µM
13 | N#Cc1c(CC(=O)O)ccc2c1CCN(C(=O)CNC(=O)/C=C/c1ccc(C(F)(F)F)cc1)C2 [I-150] | 0.182 µM | – | 24.9 µM
14 | C[C@@H]1CN(C(=O)CNC(=O)/C=C/c2ccc(C(F)(F)F)cc2F)[C@@H](c2ccc(F)c(F)c2)CN1CCC(=O)O [I-348] | – | 0.045 µM | > 30 µM
15 | C[C@@H]1CN(C(=O)CNC(=O)/C=C/c2ccc(C(F)(F)F)cc2F)[C@@H](c2ccc(Cl)cc2)CN1CCCC(=O)O [I-337] | – | 0.031 µM | 15.5 µM
16 | O=C(/C=C/c1ccc(C(F)(F)F)cc1F)NCC(=O)N1CCCC(c2cccc(C(=O)O)c2)C1 (centres unmarked) [I-255] | – | 0.766 µM | > 30 µM
17 | N#Cc1cc2c(cc1CC(=O)O)CCN(C(=O)CNC(=O)/C=C/c1ccc(C(F)(F)F)cc1F)C2 [I-224] | 0.11 µM | – | > 30 µM
18 | O=C(O)CCCN1CCN(C(=O)CNC(=O)/C=C/c2ccc(C(F)(F)F)cc2F)C(c2cccc(F)c2)C1 (centres unmarked) [I-239] | 0.302 µM | – | > 30 µM
19 | C[C@@H]1CN(C(=O)CNC(=O)/C=C/c2ccc(C(F)(F)F)cc2)[C@@H](c2ccc(F)c(F)c2)CN1CCCC(=O)O [I-350] | – | 0.184 µM | > 30 µM
20 | C[C@@H]1CN(C(=O)CNC(=O)/C=C/c2ccc(C(F)(F)F)cc2F)[C@@H](c2ccc3ccccc3c2)CN1CCCC(=O)O [I-398] | – | 0.042 µM | 25.6 µM
21 | O=C(O)CCCN1CCN(C(=O)CNC(=O)/C=C/c2ccc(C(F)(F)F)cc2F)C(c2ccccc2F)C1 (centres unmarked) [I-240] | 0.197 µM | – | > 30 µM
22 | N#Cc1c(CC(=O)O)ccc2c1CCN(C(=O)CNC(=O)/C=C/c1ccc(C(F)(F)F)cc1F)C2 [I-151] | 0.057 µM | – | > 30 µM
23 | O=C(O)CCc1ccc2c(c1)CCN(C(=O)CNC(=O)/C=C/c1ccc(C(F)(F)F)cc1)C2 [I-174] | 0.149 µM | – | > 30 µM
24 | O=C(O)COc1ccc2c(c1)CCN(C(=O)CNC(=O)/C=C/c1ccc(C(F)(F)F)cc1)C2 [I-191] | 0.104 µM | – | > 30 µM
25 | C[C@@H]1CN(C(=O)CNC(=O)/C=C/c2ccc(C(F)(F)F)cc2F)[C@@H](C)CN1CCCC(=O)O [I-197] | 2.4 µM | – | > 30 µM

Now from value to compound, other results behind:

Row | IC50 (Human BOAT1; [1]) | IC50 (Human BOAT1; phenylalanine uptake) | Structure (SMILES) | IC50 (hERG channel)
26 | – | 0.152 µM | O=C(/C=C/c1ccc(C(F)(F)F)cc1)NCC(=O)N1CCc2cc([C@@H]3C[C@H]3C(=O)O)ccc2C1 (single isomer, unassigned) [I-288, (1R*,2R*)-2-[2-[2-[[(E)-3-[4-(trifluoromethyl)phenyl]prop-2-enoyl]amino]acetyl]-3,4-dihydro-1H-isoquinolin-6-yl]cyclopropane-1-carboxylic acid] | > 30 µM
27 | 0.067 µM | – | O=C(O)Cc1ccc2c(c1Cl)CCN(C(=O)CNC(=O)/C=C/c1ccc(C(F)(F)F)cc1)C2 [I-146] | 29.9 µM
28 | 0.054 µM | – | O=C(O)Cc1nc2c(s1)CCN(C(=O)CNC(=O)/C=C/c1ccc(C(F)(F)F)cc1)C2 [I-201] | > 30 µM
29 | 3.7 µM | – | O=C(O)CCCN1CCN(C(=O)CNC(=O)/C=C/c2ccc(C(F)(F)F)cc2F)[C@@H](C(F)(F)F)C1 [I-243] | > 30 µM
30 | 0.147 µM | – | O=C(/C=C/c1ccc(C(F)(F)F)cc1F)NCC(=O)N1CCN(C[C@H]2C[C@H](C(=O)O)C2)CC1c1ccc(Cl)cc1 (some centres unmarked) [I-248] | > 30 µM
31 | 0.1 µM | – | N#Cc1cc(CC(=O)O)cc2c1CN(C(=O)CNC(=O)/C=C/c1ccc(C(F)(F)F)cc1F)CC2 [I-147] | > 30 µM
32 | – | 0.091 µM | CC[C@@H]1CN(C(=O)CNC(=O)/C=C/c2ccc(C(F)(F)F)cc2F)[C@@H](c2ccccc2)CN1CCCC(=O)O [I-343] | > 30 µM
33 | 0.158 µM | – | O=C(O)CCCCN1CCN(C(=O)CNC(=O)/C=C/c2ccc(C(F)(F)F)cc2F)C(c2ccccc2)C1 (centres unmarked) [I-242] | > 30 µM
34 | 0.613 µM | – | O=C(O)CCCN1CCN(C(=O)CNC(=O)/C=C/c2ccc(C(F)(F)F)cc2F)[C@H](C(F)(F)F)C1 [I-244] | > 30 µM
35 | – | 0.054 µM | C[C@@H]1CN(C(=O)CNC(=O)/C=C/c2ccc(C(F)(F)F)cc2F)[C@@H](c2ccc(F)cc2)CN1CCCC(=O)O [I-338] | > 30 µM
36 | 0.083 µM | – | O=C(O)Cc1ccc2c(c1)CCN(C(=O)CNC(=O)/C=C/c1ccc(I)cc1F)C2 [I-158] | > 30 µM
37 | 0.064 µM | – | Cc1ccc([C@H]2CN(CCCC(=O)O)[C@H](C)CN2C(=O)CNC(=O)/C=C/c2ccc(C(F)(F)F)cc2F)cc1 [I-383] | 15.2 µM
38 | 0.155 µM | – | O=C(/C=C/c1ccc(C(F)(F)F)cc1)NCC(=O)N1CCc2cc([C@@H]3C[C@H]3C(=O)O)ccc2C1 (racemic) [I-172, (1R*,2R*)-2-[2-[2-[[(E)-3-[4-(trifluoromethyl)phenyl]prop-2-enoylamino]acetyl]-3,4-dihydro-1H-isoquinolin-6-yl]cyclopropanoic acid] | > 30 µM
39 | 0.091 µM | – | CC(C(=O)O)c1ccc2c(c1)CCN(C(=O)CNC(=O)/C=C/c1ccc(C(F)(F)F)cc1)C2 (racemic) [I-171] | > 30 µM
40 | – | 0.087 µM | O=C(/C=C/c1ccc(C(F)(F)F)cc1)NCC(=O)N1CCc2cc([C@@H]3C[C@H]3C(=O)O)ccc2C1 (single isomer, unassigned) [I-289, (1R*,2R*)-2-[2-[2-[[(E)-3-[4-(trifluoromethyl)phenyl]prop-2-enoyl]amino]acetyl]-3,4-dihydro-1H-isoquinolin-6-yl]cyclopropane-1-carboxylic acid] | > 30 µM
